Test results published in patent US20240309016A1, “MACROCYCLIC HETEROCYCLE COMPOUNDS AND USE THEREOF” (TAKEDA PHARMACEUTICAL COMPANY LIMITED, priority 2023, published 2024).

target: T1, human OX2 receptor (Homo sapiens, UniProt O43614); assay: Measurement of orexin type 2 receptor agonist activity (Experimental Example 2; Fluo-4 AM calcium fluorescence, FDSS μCELL); assay type: cell-based; settings: compound at 3 μM; CHO cells expressing human OX2 receptor; DMSO = 0%, 10 nM orexin A (human) = 100%
T1 construct: expressed in transfected cells
T1 sequence (O43614 1-444): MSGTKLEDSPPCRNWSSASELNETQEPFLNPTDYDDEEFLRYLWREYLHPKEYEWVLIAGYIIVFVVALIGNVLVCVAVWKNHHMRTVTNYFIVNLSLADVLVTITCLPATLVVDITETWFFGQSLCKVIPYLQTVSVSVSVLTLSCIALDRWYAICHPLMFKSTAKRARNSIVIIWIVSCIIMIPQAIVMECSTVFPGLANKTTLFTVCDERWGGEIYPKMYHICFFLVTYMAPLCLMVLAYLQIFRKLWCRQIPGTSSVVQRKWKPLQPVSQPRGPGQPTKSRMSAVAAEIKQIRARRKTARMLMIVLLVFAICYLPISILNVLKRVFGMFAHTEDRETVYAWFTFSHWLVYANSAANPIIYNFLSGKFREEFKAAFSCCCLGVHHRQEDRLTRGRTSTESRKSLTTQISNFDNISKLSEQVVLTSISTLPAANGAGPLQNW
Outline: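 Agonism was tested in CHO-K1 cells stably expressing human OX2 receptor (residues 1-444), loaded with Fluo-4 AM plus probenecid. Calcium fluorescence was recorded for 1 min 40 s after compound addition. Activity (%) was scaled between DMSO (0%) and 10 nM orexin A (100%) and reported at 3 μM compound.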

Compared with `CN1Cc2ccc(Cl)c(n2)Oc2cccc(c2F)C[C@H]2[C@@H](NS(C)(=O)=O)C(F)(F)CN2C1=O` [Example 57, N-[(15aS,16R)-7-chloro-17,17,20-trifluoro-2-methyl-1-oxo-2,3,15a,16,17,18-hexahydro-1H,15H-4,8-(azeno)-14,10-(metheno)pyrrolo[1,2-j][1,8,10]oxadiazacyclo-heptadecin-16-yl]methanesulfonamide], `CCS(=O)(=O)N[C@@H]1[C@@H]2Cc3cccc(c3F)Oc3nc(ccc3C)N(C)CC(=O)N2CC1(F)F` [Example 48, N-[(15aS,16R)-17,17,20-trifluoro-3,7-dimethyl-1-oxo-2,3,15a,16,17,18-hexahydro-1H,15H-4,8-(azeno)-14,10-(metheno)pyrrolo[1,2-j][1,7,10]oxadiazacyclo-heptadecin-16-yl]ethanesulfonamide] is lower in “OX2R agonist activity (3 μM, %)” value: 108% for the first, 67% for the second.

Going from `CN(C)S(=O)(=O)N[C@H]1[C@@H](F)CN2C(=O)NCc3ccc(C(F)F)c(n3)Oc3cccc(c3F)C[C@@H]12` [Example 37, N′-[(15aS,16R,17S)-7-(difluoromethyl)-17,20-difluoro-1-oxo-2,3,15a,16,17,18-hexahydro-1H,15H-8,4-(azeno)-10,14-(metheno)pyrrolo[1,2-j][1,8,10]oxadiazacyclo-heptadecin-16-yl]-N,N-dimethylsulfuric diamide] to `CS(=O)(=O)N[C@H]1[C@@H](F)CN2C(=O)NCc3ccc(Cl)c(n3)Oc3cccc(c3F)C[C@@H]12` [Example 15, N-[(15aS,16R,17S)-7-chloro-17,20-difluoro-1-oxo-2,3,15a,16,17,18-hexahydro-1H,15H-4,8-(azeno)-14,10-(metheno)pyrrolo[1,2-j][1,8,10]oxadiazacyclo-heptadecin-16-yl]methanesulfonamide], the “OX2R agonist activity (3 μM, %)” value rises from 101% to 104%.

Going from `CCS(=O)(=O)N[C@@H]1[C@@H]2Cc3cc(F)cc(c3)Oc3nc(ccc3C)CNC(=O)N2CC1(F)F` (relative stereo) [Example 89, N-[rel-(15aS,16R)-12,17,17-trifluoro-7-methyl-1-oxo-2,3,15a,16,17,18-hexahydro-1H,15H-4,8-(azeno)-14,10-(metheno)pyrrolo[1,2-j][1,8,10]oxadiazacyclo-heptadecin-16-yl]ethanesulfonamide (optical isomer)] to `COCS(=O)(=O)N[C@@H]1[C@@H]2Cc3cccc(c3F)Oc3nc(ccc3C)CNC(=O)N2CC1(F)F` [Example 46, 1-methoxy-N-[(15aS,16R)-17,17,20-trifluoro-7-methyl-1-oxo-2,3,15a,16,17,18-hexahydro-1H,15H-4,8-(azeno)-14,10-(metheno)pyrrolo[1,2-j][1,8,10]oxadiazacyclo-heptadecin-16-yl]methanesulfonamide], the “OX2R agonist activity (3 μM, %)” value falls from 114% to 99%.

Compared with `Cc1ccc2nc1OCc1cccc(c1F)C[C@H]1[C@@H](NS(C)(=O)=O)C(F)(F)CN1C(=O)NC2` [Example 84, N-[(16aS,17R)-18,18,21-trifluoro-7-methyl-1-oxo-2,3,16a,17,18,19-hexahydro-1H,10H,16H-4,8-(azeno)-15,11-(metheno)pyrrolo[1,2-j][1,8,10]oxadiazacyclo-octadecin-17-yl]methanesulfonamide], `Cc1ccc2nc1Oc1cccc(c1F)C[C@H]1[C@@H](NS(=O)(=O)C(F)F)C(F)(F)CN1C(=O)NC2` [Example 43, 1,1-difluoro-N-[(15aS,16R)-17,17,20-trifluoro-7-methyl-1-oxo-2,3,15a,16,17,18-hexahydro-1H,15H-4,8-(azeno)-10,14-(metheno)pyrrolo[1,2-j][1,8,10]oxadiazacyclo-heptadecin-16-yl]methanesulfonamide] is lower in “OX2R agonist activity (3 μM, %)” value: 104% for the first, 101% for the second.

Compared with `CCS(=O)(=O)N[C@H]1[C@@H](F)CN2C(=O)NCc3ccc(Cl)c(n3)Oc3cccc(c3)C[C@@H]12` [Example 47, N-[(15aS,16R,17S)-7-chloro-17-fluoro-1-oxo-2,3,15a,16,17,18-hexahydro-1H,15H-4,8-(azeno)-14,10-(metheno)pyrrolo[1,2-j][1,8,10]oxadiazacyclo-heptadecin-16-yl]ethanesulfonamide], `CCS(=O)(=O)N[C@H]1[C@@H](F)CN2C(=O)NCc3ccc(C)c(n3)Oc3cccc(c3)C[C@@H]12` [Example 42, N-[(15aS,16R,17S)-17-fluoro-7-methyl-1-oxo-2,3,15a,16,17,18-hexahydro-1H,15H-4,8-(azeno)-14,10-(metheno)pyrrolo[1,2-j][1,8,10]oxadiazacyclo-heptadecin-16-yl]ethanesulfonamide] is higher in “OX2R agonist activity (3 μM, %)” value: 92% for the first, 101% for the second.

First: CCS(=O)(=O)N[C@H]1[C@@H](F)CN2C(=O)NCc3ccc(Cl)c(c3)Oc3cccc(c3F)C[C@@H]12 [Example 39, N-[(15aS,16R,17S)-7-chloro-17,20-difluoro-1-oxo-2,3,15a,16,17,18-hexahydro-1H,15H-4,8:14,10-di(metheno)pyrrolo[1,2-j][1,8,10]oxadiazacyclo-heptadecin-16-yl]ethanesulfonamide]
Second: CCS(=O)(=O)N[C@H]1[C@@H](F)CN2C(=O)CCc3ccc(Cl)c(n3)Oc3cccc(c3F)C[C@@H]12 [Example 82, N-[(1R,2S,19aS)-11-chloro-2,20-difluoro-5-oxo-2,3,6,7,19,19a-hexahydro-1H,5H-12,8-(azeno)-14,18-(metheno)pyrrolo[2,1-h][1,9]oxazacycloheptadecin-1-yl]ethanesulfonamide]
The “OX2R agonist activity (3 μM, %)” value of the first is higher: 105% for the first, 101% for the second.

First: CS(=O)(=O)N[C@@H]1[C@@H]2Cc3cccc(c3)Oc3nc(ccc3C(F)F)CNC(=O)N2CC1(F)F [Example 93, N-[(15aS,16R)-7-(difluoromethyl)-17,17-difluoro-1-oxo-2,3,15a,16,17,18-hexahydro-1H,15H-4,8-(azeno)-14,10-(metheno)pyrrolo[1,2-j][1,8,10]oxadiazacyclohepta-decin-16-yl]methanesulfonamide]
Second: CCS(=O)(=O)N[C@H]1CCN2C(=O)NCc3ccc(C)c(n3)Oc3cccc(c3)C[C@@H]12 [Example 3, N-[(15aS,16S)-7-methyl-1-oxo-2,3,15a,16,17,18-hexahydro-1H,15H-4,8-(azeno)-10,14-(metheno)pyrrolo[1,2-j][1,8,10]oxadiazacyclo-heptadecin-16-yl]ethanesulfonamide]
The “OX2R agonist activity (3 μM, %)” value of the first is higher: 109% for the first, 101% for the second.

Going from `CCS(=O)(=O)N[C@H]1[C@@H](F)CN2C(=O)COc3ncc(C)c(n3)Oc3cccc(c3)C[C@@H]12` [Example 71, N-[(15aS,16R,17S)-17-fluoro-7-methyl-1-oxo-1,2,15a,16,17,18-hexahydro-15H-4,8-(azeno)-10,14-(metheno)pyrrolo[2,1-n][1,7,3,15]dioxadiazacyclo-heptadecin-16-yl]ethanesulfonamide] to `CCS(=O)(=O)N[C@H]1[C@@H](F)CN2C(=O)COc3ccc(Cl)c(n3)Oc3cccc(c3)C[C@@H]12` [Example 69, N-[(15aS,16R,17S)-7-chloro-17-fluoro-1-oxo-1,2,15a,16,17,18-hexahydro-15H-4,8-(azeno)-14,10-(metheno)pyrrolo[1,2-d][1,12,4]dioxazacyclo-heptadecin-16-yl]ethanesulfonamide], the “OX2R agonist activity (3 μM, %)” value rises from 99% to 101%.

Compared with `CCS(=O)(=O)N[C@@H]1[C@@H]2Cc3cccc(c3F)Oc3nc(c(F)cc3Cl)CNC(=O)N2CC1(F)F` [Example 35, N-[(15aS,16R)-7-chloro-5,17,17,20-tetrafluoro-1-oxo-2,3,15a,16,17,18-hexahydro-1H,15H-4,8-(azeno)-10,14-(metheno)pyrrolo[1,2-j][1,8,10]oxadiazacyclo-heptadecin-16-yl]ethanesulfonamide], `O=C1NCc2nc(c(Cl)cc2F)Oc2cccc(c2F)C[C@H]2[C@@H](NS(=O)(=O)C3CC3)C(F)(F)CN12` [Example 58, N-[(15aS,16R)-7-chloro-5,17,17,20-tetrafluoro-1-oxo-2,3,15a,16,17,18-hexahydro-1H,15H-4,8-(azeno)-14,10-(metheno)pyrrolo[1,2-j][1,8,10]oxadiazacyclo-heptadecin-16-yl]cyclopropanesulfonamide] is higher in “OX2R agonist activity (3 μM, %)” value: 93% for the first, 106% for the second.

First: CCS(=O)(=O)N[C@H]1[C@@H](F)CN2C(=O)COc3ccc(Br)c(n3)Oc3cccc(c3)C[C@@H]12 [Example 76, N-[(15aS,16R,17S)-7-bromo-17-fluoro-1-oxo-1,2,15a,16,17,18-hexahydro-15H-4,8-(azeno)-14,10-(metheno)pyrrolo[1,2-d][1,12,4]dioxazacyclo-heptadecin-16-yl]ethanesulfonamide]
Second: Cc1cnc2nc1Oc1cccc(c1F)C[C@H]1[C@@H](NS(C)(=O)=O)C(F)(F)CN1C(=O)[C@@H]1CCCN21 [Example 59, N-[(16aS,17R,21aS)-18,18,22-trifluoro-8-methyl-21-oxo-2,3,16a,17,18,19,21,21a-octahydro-1H,16H-5,9-(azeno)-11,15-(metheno)dipyrrolo[1,2-g:1′,2′-j][1,5,7,10]oxatriazacyclo-heptadecin-17-yl]methanesulfonamide]
The “OX2R agonist activity (3 μM, %)” value of the first is lower: 96% for the first, 106% for the second.
